Test results reported in US20090175805A1, “Neuraminidase Inhibitors and uses thereof” (priority 2006, published 2009).

What was measured:
[1] = system: PAO1 biofilm formation; assay: Biofilm assay, crystal violet staining in 96-well microtiter plates; format: cell-based, P. aeruginosa; conditions: various concentrations of inhibitor, absorbance at 540 nm
Protocol: An overnight culture of bacteria grown in LB with shaking was diluted 1:100, and 100 μl aliquots added to 96-well microtiter plates incubated for 24-48 hours at 37° C. (O'Toole et al., (2000) J. Bacteriol. 182:425-431; O'Toole et al., (2000) Annu. Rev. Microbiol. 54:49-79). 0.1% crystal violet was added to each well for 15 minutes, rinsed three times with water then released with the addition of 200 μl of 95% ethanol. Absorbance was determined at 540 nm. For experiments with inhibitors, the following modifications in the assay were used: for oseltamivir (Tamiflu) (Roche, Nutley, N.J.), an overnight culture of bacteria was diluted 1:100 in different doses of inhibitor in LB and 100 μl aliquots plated and assayed as above; for peramivir (BioCryst, Birmingham, Ala.), an overnight culture of bacteria was diluted 1:100 in different doses of inhibitor in LB and incubated at room temperature for 48 hours then diluted 1:2 in LB and 100 μl aliquots plated and assayed as above (McKimm-Breschkin et al., (2003) Antimicrob. Agents. Chemother. 47:2264-2272; Sidwell et al., (2002) Expert Opin. Investig. Drugs 11:859-869). Each sample was tested in sextuplicate and the assay was repeated on three separate occasions and representative data shown. A mean and standard deviation were calculated and statistical significance determined using a two-tailed unpaired t test (Graph Pad Instat version 3.0, Graphpad Software, San Diego, Calif.) to test the null hypothesis that there was no difference in the amount of biofilm production under each test condition, as compared to the media alone or untreated control.

[2] = system: PAO1 enzyme (P. aeruginosa PAO1 neuraminidase); assay: Neuraminidase assay with fluorescent substrate 2'-(4-methylumbelliferyl)-α-D-N-acetylneuraminic acid; format: biochemical; conditions: peramivir 0.25 and 2.5 μM; 24-48 hours; fluorescence ex 360 nm / em 465 nm
Protocol: (§1) The PAO1 enzyme (10 μg/ml) was overexpressed and purified from E. coli using the pET28a vector (Novagen, San Diego, Calif.) and a control V. cholera neuraminidase (0.1 U/ml) (Calbiochem, San Diego, Calif.) were incubated with the fluorescent substrate 2′-(4-methylumbelliferyl)-α-D-N-acetylneuraminic acid (Sigma-Aldrich, St. Louis, Mo.) (25 μM in 0.9% NaCl) with or without peramivir (0.25 and 2.5 μM) for 24-48 hours and fluorescence read at excitation 360 nm and emission 465 nm. Each data point was performed in sextuplicate. A mean and standard deviation were calculated and statistical significance determined using a one-way analysis of variance with Bonferroni's post test (Graph Pad Instat version 3.0, Graphpad Software, San Diego, Calif.) to test the null hypothesis that there was no difference in the amount of fluorescence under each test condition, as compared to the untreated control.

[3] = target: T1, V. cholera neuraminidase (Vibrio cholerae serotype O1, UniProt P0C6E9); assay: as above; format: biochemical; conditions: peramivir 0.25 and 2.5 μM; 24-48 hours; fluorescence ex 360 nm / em 465 nm
T1 construct: purchased Calbiochem, San Diego, Calif
T1 sequence (P0C6E9 25-781): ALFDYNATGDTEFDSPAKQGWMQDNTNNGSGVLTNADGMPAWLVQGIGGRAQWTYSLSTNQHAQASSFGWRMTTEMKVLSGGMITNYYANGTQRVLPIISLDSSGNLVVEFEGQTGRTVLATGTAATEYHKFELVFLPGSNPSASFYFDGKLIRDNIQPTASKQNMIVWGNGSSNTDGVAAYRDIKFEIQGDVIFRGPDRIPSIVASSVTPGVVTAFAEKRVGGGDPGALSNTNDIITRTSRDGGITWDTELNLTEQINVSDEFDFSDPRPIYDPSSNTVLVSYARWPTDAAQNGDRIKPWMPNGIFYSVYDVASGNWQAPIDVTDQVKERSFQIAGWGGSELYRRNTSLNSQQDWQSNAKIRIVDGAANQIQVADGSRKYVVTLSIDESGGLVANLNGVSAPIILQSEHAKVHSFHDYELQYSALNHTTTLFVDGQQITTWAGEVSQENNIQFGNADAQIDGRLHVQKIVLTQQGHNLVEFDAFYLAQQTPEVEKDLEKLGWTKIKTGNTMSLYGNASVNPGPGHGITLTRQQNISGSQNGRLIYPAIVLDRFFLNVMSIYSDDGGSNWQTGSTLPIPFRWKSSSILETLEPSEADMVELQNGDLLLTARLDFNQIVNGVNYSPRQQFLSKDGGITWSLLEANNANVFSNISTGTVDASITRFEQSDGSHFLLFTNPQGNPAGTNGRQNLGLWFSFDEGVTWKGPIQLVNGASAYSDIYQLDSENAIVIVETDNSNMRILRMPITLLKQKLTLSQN
Protocol: as §1

Structure (SMILES) | inhibition of biofilm production by PAO1 [1] | inhibition of neuraminidase activity (PAO1 N'ase) [2] | inhibition of neuraminidase activity (V. cholera N'ase) [3]
CC(=O)N[C@H]1[C@H]([C@H](O)[C@H](O)CO)OC(C(=O)O)=C[C@@H]1N=C(N)N [zanamivir] | dose dependent inhibition of biofilm production | – | –
CCC(CC)[C@H](NC(C)=O)[C@@H]1[C@H](O)[C@@H](C(=O)O)C[C@H]1N=C(N)N [peramivir] | dose dependent inhibition of biofilm production | inhibited | inhibited
CCOC(=O)C1=C[C@@H](OC(CC)CC)[C@H](NC(C)=O)[C@@H](N)C1 [oseltamivir] | dose dependent inhibition of biofilm production | – | –
